These results are taken from patent US20080226718A1, “Indole and Azaindole Derivatives For the Treatment of Inflammatory and Autoimmune Diseases” (Brane Discovery S.r.l, priority 2005, published 2008).

Assay [1] concerns PMNs. The assay can be described thus: Chemokine-induced rapid adhesion of PMNs to fibrinogen (fMLP). Conditions: Homo sapiens, 2 min, fMLP 100 nM; for inhibition at 10 µM: [cpd] 10 μM; for inhibition at 25 µM: [cpd] 25 μM; for inhibition at 50 µM: [cpd] 50 μM. The format is cell-based. Here is the method:
(§1) Adhesion was performed on purified integrin ligands and was evaluated as reported in Constantin G. et al., Immunity, 16, 759-769, 2000. Briefly, primary naïve lymphocytes, polymorphonuclear neutrophils (PMNs) or monocytes were isolated form healthy donors. In other experiments, murine autoreactive T cells were obtained from SJL mice immunized with PLP139-151 as described (Piccio L. et al., J. Immunol, 168, 1940-1949, 2002). Cells were resuspended at 4×10^6/ml in PBS, CaCl2, MgCl2 1 mM, 10% FCS, pH 7.2. Adhesion assays were performed on eighteen well glass slides coated overnight at 4° C. with ligands for CR3 (fibrinogen) or LFA-1 (ICAM-1). 20 μl of cell suspension were added to the wells and stimulated at 37° C. with 5 μl of agonists prior to washing, fixation and computer-assisted enumeration of bound cells.
(§2) Integrin activation was measured as induction of rapid adhesion triggered by the classical chemoattractant N-formyl-L-methionyl-L-leucyl-phenylalanine (fMLP) (100 nM) or by the CC chemokine MIP3β (CCL19, 1 μM). PMNs and monocytes were triggered to adhere to fibrinogen (CR3 ligand); naive human lymphocytes or murine encephalitogenic T cells were triggered to adhere to ICAM-1 (LFA-1 ligand). Triggered adhesion was evaluated after 2 min of stimulation under static conditions. The cells were pretreated at 37° C. for 30-60 min with the indicated concentrations of the test compound. Results are expressed as percentage of inhibition over control (=100%) and are the mean of three experiments in the case of human leukocytes. Results are expressed as mean counts and are the mean counts ±S.D of three experiments and are the mean of three experiments in the case of murine encephalitogenic lymphocytes.
(§3) Integrin activation was measured as induction of rapid adhesion triggered by the “classical” chemoattractant fMLP (100 nM) or by the CC chemokine MIP3β (CCL19, 1 μM). PMNs were triggered to adhere to fibrinogen (CR3 ligand); lymphocytes were triggered to adhere to ICAM-1 (LFA-1 ligand).

Assay [2] deals with encephalitogenic lymphocytes. The assay can be described thus: Chemokine-induced adhesion of murine encephalitogenic T cells to ICAM-1. Type of assay: cell-based, SJL mice. Particulars: ICAM-1; for Chemokine-induced Adhesion in encephalitogenic lymphocytes, Mean counts ± S.D., in presence of MIP3-β stimulation: 1 μM CCL19 (MIP-3beta). Here is the method:
as §1, §2
Chemokines trigger rapid arrest of lymphocytes in blood vessels through pertussis toxin-sensitive G protein coupled receptors. Rapid adhesion to purified ICAM-1 was measured in in vitro adhesion assays using control/untreated cells and lymphocytes treated with concentration between 5-50 μM for 1 h. Autoreactive lymphocytes were then stimulated with 1 μM CCL19 (MIP-3beta) for 3 min. […] These compounds were already efficient in blocking adhesion using a concentration of 5 μM for the cell treatment.

The subject of assay [3] is lymphocytes. The assay can be described thus: Chemokine-induced rapid adhesion of lymphocytes to ICAM-1 (MIP3β). The format is cell-based. Conditions: Homo sapiens, Lymphocyte, MIP3β 1 μM; for inhibition at 10 µM: [cpd] 10 μM, read-out: Inhibition of Adhesion (%) Lymphocytes (MIP3-β); for inhibition at 25 µM: [cpd] 25 μM; for inhibition at 25 µM / inhibition at 50 µM: read-out: Inhibition of Adhesion (%) Lymphocytes (MIP3-β) (converted); for inhibition at 50 µM: [cpd] 50 μM. On the procedure: as §1, §2, §3

Assay [4] has as its system monocytes. The assay can be described thus: Chemotaxis assay, monocytes (fMLP). The format is cell-based. Conditions: Homo sapiens, Monocyte, fMLP 10 nM, 2 h; for inhibition at 10 µM: [cpd] 10 μM; for inhibition at 25 µM: [cpd] 25 μM; for inhibition at 50 µM: [cpd] 50 μM. Here is the method: (§4) PMNs and monocytes migration was assessed using 1 or 3-μm pore size transwells (Bio-Coat Becton-Dickinson), while lymphocytes by using 5-elm pore size transwells.
(§5) Cells were in RPMI1640, containing 10% heat-inactivated Fetal Calf Serum (FCS) and 20 mM HEPES, pH 7.3, at 2×10^6/ml. 100 μl of cell suspension were added to the top well, and 600 μl of medium, containing chemoattractants and test compound, were added to the bottom well. Migration was evaluated after 2 h for PMNs and monocytes and after 4 h for lymphocytes. fMLP 10 nM (PMNs and monocytes) and MIP-3β 100 nM (lymphocytes) were utilized as chemoattractants. After fixation with 1.5% glutaraldehyde, migrated cells were counted by fluorescence-activated celli sorting using polystyrene beads (Polyscience) as an internal standard (Campbell J. J. et al. J. Cell. Biol. 134, 255-266, 1996; Laudanna C. et al. J. Biol. Chem. 273,46, 30306-30315, 1998).
(§6) Results are expressed as percentage of inhibition over control (=100%), and are the mean of three experiments.

Assay [5] has as its system encephalitogenic lymphocytes. Kind of assay: Spontaneous adhesion of encephalitogenic T cells on purified ICAM-1. The format is cell-based, SJL mice. Conditions: Mus musculus, Lymphocyte, 1 h; for inhibition at 5 µM: [cpd] 5 μM, read-out: Inhibition of Spontaneous Adhesion in encephalitogenic lymphocytes (% of control/non-treated cells) ICAM-1; for inhibition at 10 µM: [cpd] 10 μM; for inhibition at 10 µM / inhibition at 50 µM: read-out: Inhibition of Spontaneous Adhesion in encephalitogenic lymphocytes (% of control/non-treated cells) ICAM-1 (converted); for inhibition at 50 µM: [cpd] 50 μM. Here is the method: Spontaneous adhesion of encephalitogenic lymphocytes was measured in adhesion assays on purified ICAM-1 and VCAM-1 as previously described (Constantin G. et al., J. Immunol. 162, 1144-1149, 1999). Autoreactive T cells were obtained from SJL mice immunized with PLP139-151 as described (Piccio L. et al., J. Immunol. 168, 1940-1949, 2002). Lymphocytes were treated with test compound at concentrations between 5-100 μM for 1 h, while control/untreated cells were treated with vehicle (DMSO). Results are expressed as percentage of inhibition over control (=100%) ±S.D and are the mean of three-four experiments.
ICAM-1 and VCAM-1 are adhesion molecules from the family of immunoglobulins and control the migration of lymphocytes through the endothelium during inflammatory responses. Encephalitogenic T cells are activated lymphocytes displaying spontaneous adhesion on ICAM-1 and VCAM-1 and have increased migration capacities in inflammation sites. Spontaneous adhesion of encephalitogenic lymphocytes was measured in adhesion assays on purified ICAM-1 and VCAM-1 as described in the method.

Assay [6] has as its system lymphocytes. The assay can be described thus: Chemotaxis assay, lymphocytes (MIP-3β). Type of assay: cell-based. Particulars: Homo sapiens, Lymphocyte, MIP-3β 100 nM, 4 h; for inhibition at 10 µM: [cpd] 10 μM, read-out: Inhibition of Chemotaxis (%) Lymphocytes (MIP3-β); for inhibition at 25 µM: [cpd] 25 μM; for inhibition at 25 µM / inhibition at 50 µM: read-out: Inhibition of Chemotaxis (%) Lymphocytes (MIP3-β) (converted); for inhibition at 50 µM: [cpd] 50 μM. Here is the method: as §4, §5, §6

Assay [7] relates to PMNs. Kind of assay: Chemotaxis assay, PMNs (fMLP). The format is cell-based. Conditions: Homo sapiens, fMLP 10 nM, 2 h; for inhibition at 10 µM: [cpd] 10 μM; for inhibition at 25 µM: [cpd] 25 μM; for inhibition at 50 µM: [cpd] 50 μM. Here is the method:
as §4, §5, §6

For assay [8], the system named is monocytes. Kind of assay: Chemokine-induced rapid adhesion of monocytes to fibrinogen (fMLP). The format is cell-based. Conditions: Homo sapiens, Monocyte, fMLP 100 nM; for inhibition at 10 µM: [cpd] 10 μM; for inhibition at 25 µM: [cpd] 25 μM; for inhibition at 50 µM: [cpd] 50 μM. Here is the method: as §1, §2

SMILES strings stand for the structures.

In the case of `CCOC(=O)CCc1[nH]c2cc(OC)c(OC)cc2c1-c1ccc(OC)cc1` [Example 22], the inhibition at 10 µM in the assay on PMNs [1] was 2.6%; in the assay with lymphocytes [3] it was 65%; with monocytes [4], 23.7%; in assay [5], 61.3%; with lymphocytes [6], 47.9%; in the assay with PMNs [7], 56.9%. The inhibition at 10 µM in the assay with monocytes [8] was determined as 9.5%. Further, the inhibition at 25 µM in the assay on PMNs [1] was 13.8%; in the assay on lymphocytes [3], 95.6%; in the assay with monocytes [4] it was 80.1%; in the assay on lymphocytes [6], 84.6%; with PMNs [7] it was 88.7%; in the assay with monocytes [8] it was 29.6%. The inhibition at 50 µM with PMNs [1] is 32.6%; in the assay with lymphocytes [3], 97.1%; in the assay with monocytes [4], 96.4%; in assay [5], 94.7%; in the assay on lymphocytes [6], 94.7%; in the assay with PMNs [7], 97.8%. The compound further showed an inhibition at 50 µM in the assay with monocytes [8] of 42.6%. Further, the “Chemokine-induced Adhesion in encephalitogenic lymphocytes, Mean counts ± S.D., in presence of MIP3-β stimulation” value in assay [2] ([cpd] 10 μM) is 74.1 ± 6.4; in assay [2] ([cpd] 50 μM) it was 48.0 ± 6.4. In assay [2] ([cpd] 10 μM), the “Adhesion in encephalitogenic lymphocytes, Mean counts ± S.D., in absence of MIP3-β stimulation” value was determined as 44.2 ± 5.7. The inhibition at 5 µM in assay [5] came to 39.9%.

As for `CNC(=O)c1[nH]c2cc(OC)c(OC)cc2c1-c1ccccc1` [Example 48], the inhibition at 10 µM with PMNs [1] was 18%; with lymphocytes [3] it was 53.7%; with monocytes [4], 71.7%; in assay [5], 65.6%; in the assay on lymphocytes [6], 48.9%; in the assay on PMNs [7] it was 82.4%. Also, the inhibition at 10 µM with monocytes [8] was 7.5%. For the same compound, the inhibition at 25 µM with PMNs [1] was 48.9%; in the assay with lymphocytes [3], 77.3%; with monocytes [4], 90.4%; with lymphocytes [6] it was 77.3%; in the assay on PMNs [7] it was 87.8%; with monocytes [8] it was 22.5%. For the same compound, the inhibition at 50 µM with PMNs [1] is 53.7%; in the assay with lymphocytes [3] it was 91.5%; with monocytes [4], 96.5%; in assay [5], 95.6%; with lymphocytes [6], 94.9%; in the assay with PMNs [7] it was 96.4%. This compound showed an inhibition at 50 µM with monocytes [8] of 31.7%. The inhibition at 5 µM in assay [5] amounted to 37.5%.

As for `COc1ccc(-c2c3n(c4cc(OC)c(OC)cc24)CC(=O)NC3)cc1` [Example 66], the inhibition at 10 µM was 6.1% in the assay with PMNs [1]; 61.3% in the assay with lymphocytes [3]; 43.9% in the assay on monocytes [4]; 33.7% in assay [5]; 57.5% with lymphocytes [6]; 50% in the assay with PMNs [7]. This compound also returned an inhibition at 10 µM in the assay with monocytes [8] of 11.3%. Besides, the inhibition at 25 µM was 11.5% in the assay with PMNs [1]; 68.1% with lymphocytes [3]; 74.4% in the assay with monocytes [4]; 89.6% with lymphocytes [6]; 77.8% with PMNs [7]; 28.7% in the assay with monocytes [8]. Also, the inhibition at 50 µM with PMNs [1] was 17.2%; in the assay on lymphocytes [3] it was 79%; in the assay on monocytes [4], 92.7%; in assay [5], 92.9%; with lymphocytes [6], 87.7%; with PMNs [7] it was 92.6%. Moreover, the inhibition at 50 µM in the assay on monocytes [8] is 40.4%. Further, the inhibition at 5 µM in assay [5] was found to be 15%.

With `COc1ccc(-c2c(-c3nnc(C)o3)[nH]c3cc(OC)c(OC)cc23)cc1` [Example 77], the inhibition at 10 µM in the assay with PMNs [1] is 17.4%; in the assay with lymphocytes [3], 15.9%; in the assay with monocytes [4], 40.6%; in assay [5], 34.8%; in the assay on lymphocytes [6], 13.6%; in the assay with PMNs [7], 51.3%. Moreover, in the assay on monocytes [8], the inhibition at 10 µM was determined as 3.5%. Further, the inhibition at 25 µM with PMNs [1] is 24.7%; in the assay with lymphocytes [3], 20.7%; in the assay with monocytes [4], 48.9%; with lymphocytes [6], 25.4%; with PMNs [7], 49.4%; in the assay on monocytes [8], 33.4%. For the same compound, the inhibition at 50 µM was 30.5% in the assay on PMNs [1]; 30.5% in the assay with lymphocytes [3]; 59% in the assay on monocytes [4]; 95.9% in assay [5]; 33.8% with lymphocytes [6]; 59.5% in the assay on PMNs [7]. In addition, the inhibition at 50 µM in the assay with monocytes [8] is 50.8%. Further, the inhibition at 5 µM in assay [5] came to 25.9%.
